From patent US20210276978A1, “INHIBITORS OF HISTONE DEACETYLASE” (Alkermes, Inc., priority 2018, published 2021)

Experiments:
Full length Human HDAC1 = target: T1, Full length Human HDAC1 (Homo sapiens, UniProt Q13547); assay: HDAC1 enzymatic assay (deacetylation of FAM-labeled peptide substrate, microfluidic electrophoresis); assay type: biochemical; conditions: 1 uM substrate peptide
T1 construct: Full length Human HDAC1 with; His (C); FLAG (C); host or cells: baculovirus expression system
Description: (§1) HDAC2 and HDAC1 Enzymatic Assay (HDAC2 and HDAC1 IC50 Data)
(§2) The following describes an assay protocol for measuring the deacetylation of a peptide substrate by HDAC2 or HDAC1.
(§3) HDAC protein composition and respective substrate peptides are summarized below.
(§4) HDAC reactions are assembled in 384 well plates (Greiner) in a total volume of 20 µL as following:
(§5) HDAC proteins are pre-diluted in the assay buffer comprising: 100 mM HEPES, pH 7.5, 0.1% BSA, 0.01% Triton X-100, 25 mM KCl and dispensed into 384 well plate (10 uL per well).
(§6) Test compounds are serially pre-diluted in DMSO and added to the protein samples by acoustic dispensing (Labcyte Echo). Concentration of DMSO is equalized to 1% in all samples.
(§7) Control samples (0%-inhibition in the absence of inhibitor, DMSO only) and 100%-inhibition (in the absence of enzyme) are assembled in replicates of four and used to calculate the %-inhibition in the presence of compounds.
(§8) At this step compounds can be pre-incubated with enzyme if desired.
(§9) The reactions are initiated by addition of 10 uL of the FAM-labeled substrate peptide pre-diluted in the same assay buffer. Final concentration of substrate peptide is 1 uM (HDAC1-2). The reactions are allowed to proceed at room temperature. Following incubation, the reactions are quenched by addition of 50 µL of termination buffer (100 mM HEPES, pH7.5, 0.01% Triton X-100, 0.1% SDS). Terminated plates are analyzed on a microfluidic electrophoresis instrument (Caliper LabChip® 3000, Caliper Life Sciences/Perkin Elmer) which enables electrophoretic separation of de-acetylated product from acetylated substrate. A change in the relative intensity of the peptide substrate and product is the parameter measured. Activity in each test sample is determined as the product to sum ratio (PSR): P/(S+P), where P is the peak height of the product, and S is the peak height of the substrate. Percent inhibition (Pinh) is determined using the following equation: Pinh=(PSR0% inh−PSRcompound)/(PSR0% inh−PSR100% inh)*100, in which: PSRcompound is the product/sum ratio in the presence of compound, PSR0% inh is the product/sum ratio in the absence of compound and the PSR100% inh is the product/sum ratio in the absence of the enzyme. To determine IC50 of compounds (50%-inhibition) the %-inh data (Pinh versus compound concentration) are fit by a 4 parameter sigmoid dose-response model using XLfit software (IDBS).
(§10) In the table, “A” indicates a IC50 value of less than 0.5 “B” a IC50 value from 0.5 μM to 1.0 μM; “C” a IC50 value of greater than 1.0 μM and less than or equal to 2.0 μM; and “D” indicates an IC50 value of greater than 2.0 NT=Not Tested.

Full length Human HDAC2 = target: T2, Full length Human HDAC2 (Homo sapiens, UniProt Q92769); assay: HDAC2 enzymatic assay (deacetylation of FAM-labeled peptide substrate, microfluidic electrophoresis); assay type: biochemical; conditions: 1 uM substrate peptide
T2 construct: Full length Human HDAC2 with; FLAG (C); host or cells: baculovirus expression system
Description: as §1, §2, §3, §4, §5, §6, §7, §8, §9, §10

HDAC2 = target: T3, HDAC2 (Homo sapiens, UniProt Q92769); assay: HDAC2 enzymatic inhibition assay in SH-SY5Y cell lysate with an exogenous substrate (HDAC-Glo 2); assay type: cell-based; conditions: for IC50: SH-SY5Y cells
T3 construct: host or cells: SH-SY5Y cells
Description: HDAC2 Enzymatic Inhibition Assay in SH-SY5Y Cell Lysate with an Exogenous Substrate
SH-SY5Y cells (Sigma) were cultured in Eagle's Modified Essential Medium supplemented with 10% fetal bovine serum and pen/strep. Twenty-four hours prior to compound dosing 20 uL of cells were plated in white 384 well plates at a density of 1,500 cells/well. Compounds were serially diluted in neat DMSO and then diluted 1:100 v/v into media without FBS and mixed. Media was removed from the plated cells and the diluted compounds in serum free media (1% v/v final DMSO) were added and incubated at 37.0 for five hours. Ten uL of HDAC-Glo 2 reagent with 0.1% Triton X-100 was then added, the plate was mixed and allowed to develop at room temperature for 100 minutes. Plates were then read with a Spectramax LMax luminometer employing a 0.4 s integration time. Dose response curves were constructed with normalized data where CI-994 at 100 uM was defined as 100% inhibition and DMSO alone as 0% inhibition.
In the table, “A” indicates a IC50 value of less than 0.5 μM; “B” a IC50 value from 0.5 μM to 1.0 μM; “C” a IC50 value of greater than 1.0 μM and less than or equal to 2.0 μM; and “D” indicates an IC50 value of greater than 2.0 μM. NT=Not Tested.

[1] = five hours incubation, HDAC-Glo 2 reagent, class symbols
[2] = HDAC2 SH-SY5Y cell lysate assay
[3] = HDAC-Glo 2, numeric values, Table 4

T2 sequence (Q92769 whole entry): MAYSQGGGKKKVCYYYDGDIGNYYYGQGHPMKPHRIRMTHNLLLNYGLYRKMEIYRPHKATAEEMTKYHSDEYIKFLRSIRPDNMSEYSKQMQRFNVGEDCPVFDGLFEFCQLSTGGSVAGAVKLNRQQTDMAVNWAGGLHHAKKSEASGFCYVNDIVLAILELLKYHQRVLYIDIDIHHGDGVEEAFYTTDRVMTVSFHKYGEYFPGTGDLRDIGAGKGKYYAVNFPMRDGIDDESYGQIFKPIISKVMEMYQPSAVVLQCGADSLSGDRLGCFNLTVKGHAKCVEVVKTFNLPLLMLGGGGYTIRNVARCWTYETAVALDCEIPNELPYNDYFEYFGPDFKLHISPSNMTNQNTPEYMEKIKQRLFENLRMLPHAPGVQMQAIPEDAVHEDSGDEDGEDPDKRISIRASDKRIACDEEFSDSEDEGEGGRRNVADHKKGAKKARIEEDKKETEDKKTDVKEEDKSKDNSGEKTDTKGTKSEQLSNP
T3 sequence (Q92769 whole entry): as above
T1 sequence (Q13547 whole entry): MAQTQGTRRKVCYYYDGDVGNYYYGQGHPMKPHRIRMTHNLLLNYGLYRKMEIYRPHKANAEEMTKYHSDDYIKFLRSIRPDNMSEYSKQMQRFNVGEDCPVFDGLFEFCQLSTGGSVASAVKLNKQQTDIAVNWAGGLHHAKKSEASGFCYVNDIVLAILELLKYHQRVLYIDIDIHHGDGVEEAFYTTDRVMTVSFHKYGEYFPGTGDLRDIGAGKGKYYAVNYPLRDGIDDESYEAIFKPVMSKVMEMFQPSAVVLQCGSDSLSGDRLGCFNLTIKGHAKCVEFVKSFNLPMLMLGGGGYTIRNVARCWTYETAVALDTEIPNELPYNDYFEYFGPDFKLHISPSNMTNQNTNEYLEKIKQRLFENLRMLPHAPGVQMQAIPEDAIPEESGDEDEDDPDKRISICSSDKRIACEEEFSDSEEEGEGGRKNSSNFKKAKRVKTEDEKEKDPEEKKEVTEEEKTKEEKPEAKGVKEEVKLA

Compound | IC50 (Full length Human HDAC1) | IC50 (Full length Human HDAC2) | IC50 (HDAC2; [1]) | fold more potent than Comparator A (HDAC2; [2]) | potency compared with Comparators A-C (HDAC2; [2]) | IC50 (HDAC2; [3])
Nc1ccc(-c2ccc(F)cc2)nc1NC(=O)N1CCC(F)(c2ncc(F)cn2)C1 (single isomer, unassigned) [Compound 53] | < 0.5 µM | 0.5 to 1 µM | 0.5 to 1 µM | – | – | –
Nc1ccc(-c2cccs2)nc1NC(=O)N1CCC(c2ncccn2)C1 (stereo not shown) [Compound 41] | < 0.5 µM | 0.5 to 1 µM | 0.5 to 1 µM | – | – | –
Nc1ccc(-c2ccc(F)cc2F)nc1NC(=O)N1CCC(Oc2ncccn2)C1 (stereo not shown) [Compound 23] | > 2 µM | > 2 µM | > 2 µM | – | – | –
Cc1ccnc(C2CCN(C(=O)Nc3nc(-c4ccc(F)cc4F)ccc3N)C2)n1 (stereo not shown) [Compound 10] | < 0.5 µM | 0.5 to 1 µM | 1 to 2 µM | – | – | –
Nc1ccc(-c2ccc(F)cc2)nc1NC(=O)N1CCC(c2ncc(F)cn2)C1 (single isomer, unassigned) [Compound 20E1] | 0.5 to 1 µM | 0.5 to 1 µM | 1 to 2 µM | – | – | –
Nc1ccc(-c2ccc(F)cc2F)nc1NC(=O)N1CCC(F)(c2ncccn2)C1 (single isomer, unassigned) [Compound 29E1] | < 0.5 µM | < 0.5 µM | 0.5 to 1 µM | – | – | –
Nc1ccc(-c2ccccc2F)nc1NC(=O)N1CCC(c2ncccn2)C1 (stereo not shown) [Compound 48] | 0.5 to 1 µM | 1 to 2 µM | 1 to 2 µM | – | – | –
Nc1ccc(-c2ccc(F)cc2)nc1NC(=O)N1CCC(c2ncc(F)cn2)C1 (stereo not shown) [Compound 20] | < 0.5 µM | 0.5 to 1 µM | 1 to 2 µM | > 2 fold | greater potency | 1.13 µM
Nc1ccc(-c2ccc(F)cc2)nc1NC(=O)N1CCC(F)(c2ncc(F)cn2)C1 (single isomer, unassigned) [Compound 52] | 0.5 to 1 µM | 1 to 2 µM | > 2 µM | – | – | –
Nc1ccc(-c2ccc(F)cc2F)nc1NC(=O)N1CCC(c2ncc(F)cn2)C1 (single isomer, unassigned) [Compound 14E1] | < 0.5 µM | 0.5 to 1 µM | 0.5 to 1 µM | – | – | –
Nc1ccc(-c2ccccc2F)nc1NC(=O)N1CCC(c2ncc(F)cn2)C1 (stereo not shown) [Compound 21] | 0.5 to 1 µM | 1 to 2 µM | 1 to 2 µM | – | – | –
Nc1ccc(-c2ccc(F)cc2F)nc1NC(=O)N1CCC(c2ncccn2)C1 (racemic) [Compound 7] | < 0.5 µM | 0.5 to 1 µM | 0.5 to 1 µM | – | – | –
Nc1ccc(-c2ccc(F)cc2F)nc1NC(=O)N1CCC(c2ccccn2)C1 (stereo not shown) [Compound 1] | 0.5 to 1 µM | 1 to 2 µM | > 2 µM | – | – | –
Nc1ccc(-c2ccc(F)cc2F)nc1NC(=O)N1CCC(F)(c2ncccn2)C1 (single isomer, unassigned) [Compound 29E2] | 1 to 2 µM | 1 to 2 µM | 1 to 2 µM | – | – | –
Nc1ccc(-c2ccc(F)cc2F)nc1NC(=O)N1CCC(c2ccncc2)C1 (stereo not shown) [Compound 3] | > 2 µM | > 2 µM | > 2 µM | – | – | –
Nc1ccc(-c2ccc(F)cc2)nc1NC(=O)N1CCC(c2ncccn2)C1 (single isomer, unassigned) [Compound 19E1] | 0.5 to 1 µM | < 0.5 µM | 1 to 2 µM | – | – | –
Nc1ccc(-c2ccc(F)s2)nc1NC(=O)N1CCC(c2ncccn2)C1 (single isomer, unassigned) [Compound 40] | < 0.5 µM | < 0.5 µM | 0.5 to 1 µM | – | – | –
Nc1ccc(-c2ccc(F)s2)nc1NC(=O)N1CCC(c2ncc(F)cn2)C1 (single isomer, unassigned) [Compound 44] | < 0.5 µM | 0.5 to 1 µM | 0.5 to 1 µM | – | – | –
Nc1ccc(-c2cccs2)nc1NC(=O)N1CCC(c2ncc(F)cn2)C1 (stereo not shown) [Compound 49] | < 0.5 µM | 1 to 2 µM | 1 to 2 µM | – | – | –
Nc1ccc(-c2ccc(F)cc2F)nc1NC(=O)N1CCC(Cc2ncccn2)C1 (single isomer, unassigned) [Compound 25E1] | 1 to 2 µM | 1 to 2 µM | 0.5 to 1 µM | – | – | –
Nc1ccc(-c2ccc(F)cc2F)nc1NC(=O)N1CCC(c2cccnc2)C1 (stereo not shown) [Compound 2] | 1 to 2 µM | > 2 µM | > 2 µM | – | – | –
Nc1ccc(-c2ccc(F)s2)nc1NC(=O)N1CCC(c2ncccn2)C1 (single isomer, unassigned) [Compound 39] | 1 to 2 µM | 1 to 2 µM | > 2 µM | – | – | –
Nc1ccc(-c2ccc(F)cc2F)nc1NC(=O)N1CCC(Cc2ncccn2)C1 (stereo not shown) [Compound 24] | 1 to 2 µM | 1 to 2 µM | 1 to 2 µM | – | – | 1.42 µM
Nc1ccc(-c2ccc(F)cc2)nc1NC(=O)N1CCC(c2ncccn2)C1 (single isomer, unassigned) [Compound 19E2] | < 0.5 µM | < 0.5 µM | 0.5 to 1 µM | – | – | –
Nc1ccc(-c2ccc(F)s2)nc1NC(=O)N1CCC(F)(c2ncccn2)C1 (stereo not shown) [Compound 45] | 0.5 to 1 µM | 1 to 2 µM | 0.5 to 1 µM | – | – | –
Nc1ccc(-c2ccc(F)cc2F)nc1NC(=O)N1CCC(Cc2ncccn2)C1 (single isomer, unassigned) [Compound 25E2] | 1 to 2 µM | > 2 µM | 0.5 to 1 µM | – | – | –
Nc1ccc(-c2ccc(F)s2)nc1NC(=O)N1CCC(c2ncc(F)cn2)C1 (single isomer, unassigned) [Compound 43] | 1 to 2 µM | > 2 µM | 1 to 2 µM | – | – | –
Nc1ccc(-c2ccc(F)cc2F)nc1NC(=O)N1CCC(c2ccccc2)C1 (stereo not shown) [Compound 4] | 0.5 to 1 µM | 1 to 2 µM | > 2 µM | – | – | –
